In the supplement of paper PMC10307832:

Legend:
Test in all cases: relative viability (nuclei count vs DMSO), 5 days (fraction); higher = more cells survive
ChaGo-K-1 = test system: ChaGo-K-1
Outline: (§1)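 One day after seeding in 1536-well plates, lung cancer cell lines were dosed by pin tool. Dosing was either single-drug or a fixed anchor-drug dose plus five library-drug doses (not always all listed) in √10 steps. After 5 days, nuclei were stained in one fix-and-stain step and counted on 4× images, and relative viability is the nuclei count of treated wells over that of vehicle wells, given as the median of duplicate plates.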

NCI-H1299 = test system: NCI-H1299
Outline: as §1

A549 = test system: A549
Outline: as §1

EBC-1 = test system: EBC-1
Outline: as §1

IA-LM = test system: IA-LM
Outline: as §1

SK-MES-1 = test system: SK-MES-1
Outline: as §1

NCI-H1703 = test system: NCI-H1703
Outline: as §1

NCI-H1651 = test system: NCI-H1651
Outline: as §1

Calu-6 = test system: Calu-6
Outline: as §1

Work on `NC(=O)Nc1cc(-c2cccc(F)c2)sc1C(=O)N[C@H]1CCCNC1` [AZD7762] + CS(=O)(=O)N1CCN(Cc2cc3nc(-c4cccc5[nH]ncc45)nc(N4CCOCC4)c3s2)CC1 [Pictilisib] (partner 1 µM) yielded a relative viability (ChaGo-K-1; first compound 0.01 µM) of 0.656, a relative viability (ChaGo-K-1; first compound 0.03162 µM) of 0.815 and a relative viability (ChaGo-K-1; first compound 0.1 µM) of 0.846. For the same compound, the relative viability (ChaGo-K-1; first compound 0.3162 µM) was 0.675, the relative viability (ChaGo-K-1; first compound 1 µM) was 0.562 and the relative viability (NCI-H1299; first compound 0.01 µM) was 0.98. It also gave a relative viability (NCI-H1299; first compound 0.03162 µM) of 0.882, a relative viability (NCI-H1299; first compound 0.1 µM) of 0.622 and a relative viability (NCI-H1299; first compound 0.3162 µM) of 0.248. For the same compound, the relative viability (NCI-H1299; first compound 1 µM) was 0.116, the relative viability (A549; first compound 0.01 µM) was 0.548 and the relative viability (A549; first compound 0.03162 µM) was 0.587. For the same compound, the relative viability (A549; first compound 0.1 µM) was 0.641, the relative viability (A549; first compound 0.3162 µM) was 0.368 and the relative viability (A549; first compound 1 µM) was 0.107. The relative viability (EBC-1; first compound 0.01 µM) was 0.429, the relative viability (EBC-1; first compound 0.03162 µM) was 0.447 and the relative viability (EBC-1; first compound 0.1 µM) was 0.375. The relative viability (EBC-1; first compound 0.3162 µM) was 0.28, the relative viability (EBC-1; first compound 1 µM) was 0.166 and the relative viability (IA-LM; first compound 0.01 µM) was 0.48. It also gave a relative viability (IA-LM; first compound 0.03162 µM) of 0.456, a relative viability (IA-LM; first compound 0.1 µM) of 0.538 and a relative viability (IA-LM; first compound 0.3162 µM) of 0.48. For the same compound, the relative viability (IA-LM; first compound 1 µM) was 0.0832, the relative viability (SK-MES-1; first compound 0.01 µM) was 0.353 and the relative viability (SK-MES-1; first compound 0.03162 µM) was 0.322. The relative viability (SK-MES-1; first compound 0.1 µM) was 0.358, the relative viability (SK-MES-1; first compound 0.3162 µM) was 0.331 and the relative viability (SK-MES-1; first compound 1 µM) was 0.25. The relative viability (NCI-H1703; first compound 0.01 µM) was 0.234, the relative viability (NCI-H1703; first compound 0.03162 µM) was 0.252 and the relative viability (NCI-H1703; first compound 0.1 µM) was 0.224. The relative viability (NCI-H1703; first compound 0.3162 µM) was 0.189, the relative viability (NCI-H1703; first compound 1 µM) was 0.129 and the relative viability (NCI-H1651; first compound 0.01 µM) was 0.755. It also gave a relative viability (NCI-H1651; first compound 0.03162 µM) of 0.566, a relative viability (NCI-H1651; first compound 0.1 µM) of 0.556 and a relative viability (NCI-H1651; first compound 0.3162 µM) of 0.457. The relative viability (NCI-H1651; first compound 1 µM) was 0.226, the relative viability (Calu-6; first compound 0.01 µM) was 0.882 and the relative viability (Calu-6; first compound 0.03162 µM) was 0.875. The relative viability (Calu-6; first compound 0.1 µM) was 0.691, the relative viability (Calu-6; first compound 0.3162 µM) was 0.17 and the relative viability (Calu-6; first compound 1 µM) was 0.113.

`C=C1C(=O)O[C@@H](CCCCCCCC)[C@@H]1C(=O)O` [C-75] + CS(=O)(=O)N1CCN(Cc2cc3nc(-c4cccc5[nH]ncc45)nc(N4CCOCC4)c3s2)CC1 [Pictilisib] (partner 1 µM) showed a relative viability (ChaGo-K-1; first compound 0.08 µM) of 0.431, a relative viability (ChaGo-K-1; first compound 0.253 µM) of 0.749 and a relative viability (ChaGo-K-1; first compound 0.8 µM) of 0.594. It also gave a relative viability (ChaGo-K-1; first compound 2.53 µM) of 0.507, a relative viability (ChaGo-K-1; first compound 8 µM) of 0.771 and a relative viability (NCI-H1299; first compound 0.08 µM) of 0.785. For the same compound, the relative viability (NCI-H1299; first compound 0.253 µM) was 0.825, the relative viability (NCI-H1299; first compound 0.8 µM) was 0.737 and the relative viability (NCI-H1299; first compound 2.53 µM) was 0.826. It also gave a relative viability (NCI-H1299; first compound 8 µM) of 0.634, a relative viability (A549; first compound 0.08 µM) of 0.475 and a relative viability (A549; first compound 0.253 µM) of 0.571. The relative viability (A549; first compound 0.8 µM) was 0.514, the relative viability (A549; first compound 2.53 µM) was 0.309 and the relative viability (A549; first compound 8 µM) was 0.497. For the same compound, the relative viability (EBC-1; first compound 0.08 µM) was 0.43, the relative viability (EBC-1; first compound 0.253 µM) was 0.355 and the relative viability (EBC-1; first compound 0.8 µM) was 0.315. The relative viability (EBC-1; first compound 2.53 µM) was 0.361, the relative viability (EBC-1; first compound 8 µM) was 0.179 and the relative viability (IA-LM; first compound 0.08 µM) was 0.448. The relative viability (IA-LM; first compound 0.253 µM) was 0.294, the relative viability (IA-LM; first compound 0.8 µM) was 0.266 and the relative viability (IA-LM; first compound 2.53 µM) was 0.358. The relative viability (IA-LM; first compound 8 µM) was 0.375, the relative viability (SK-MES-1; first compound 0.08 µM) was 0.339 and the relative viability (SK-MES-1; first compound 0.253 µM) was 0.374. The relative viability (SK-MES-1; first compound 0.8 µM) was 0.374, the relative viability (SK-MES-1; first compound 2.53 µM) was 0.373 and the relative viability (SK-MES-1; first compound 8 µM) was 0.346. It also gave a relative viability (NCI-H1703; first compound 0.08 µM) of 0.247, a relative viability (NCI-H1703; first compound 0.253 µM) of 0.266 and a relative viability (NCI-H1703; first compound 0.8 µM) of 0.235. The relative viability (NCI-H1703; first compound 2.53 µM) was 0.214, the relative viability (NCI-H1703; first compound 8 µM) was 0.249 and the relative viability (NCI-H1651; first compound 0.08 µM) was 0.466. The relative viability (NCI-H1651; first compound 0.253 µM) was 0.633, the relative viability (NCI-H1651; first compound 0.8 µM) was 0.499 and the relative viability (NCI-H1651; first compound 2.53 µM) was 1.04. The relative viability (NCI-H1651; first compound 8 µM) was 0.501, the relative viability (Calu-6; first compound 0.08 µM) was 0.985 and the relative viability (Calu-6; first compound 0.253 µM) was 1.07. The relative viability (Calu-6; first compound 0.8 µM) was 0.811, the relative viability (Calu-6; first compound 2.53 µM) was 0.714 and the relative viability (Calu-6; first compound 8 µM) was 0.817.
